This note sets out measurements from patent US6545170B2, “2-amino-5, 6 heptenoic acid derivatives useful as nitric oxide synthase inhibitors” (Pharmacia Corporation, priority 2000, dated 2003).

Structures are written as SMILES. Where a name gives a salt, the structure may show the parent alone. Bounds are passed on as bounds.

The test system of assay [1] is inducible nitric oxide synthase activity (plasma nitrite/nitrate levels). The assay is described as follows: In vivo assay: LPS-induced increase in plasma nitrite/nitrate. As to conditions: Rattus norvegicus; rats, endotoxin (LPS) i.p., oral administration, 5 hours post-treatment; read-out: ED50, inhibition of LPS-induced increase in plasma nitrite/nitrate levels. As to the method: Plasma nitrite/nitrate levels can be determined 5 hours post-treatment.

For assay [2], the target named is T1, Human inducible NOS (hiNOS) (Homo sapiens, UniProt P35228).
T1 construct: made in house; host or cells: Sf9 insect cells (baculovirus vector)
As to the kind of experiment: Citrulline assay for nitric oxide synthase, hiNOS. In kind it is biochemical. The following applies: recombinant enzyme, 30 μM L-arginine, 37° C. 15 minutes. The source says:
(§1) Nitric oxide synthase (NOS) activity can be measured by monitoring the conversion of L-[2,3-^3H]-arginine to L-[2,3-^3H]-citrulline (Bredt and Snyder, Proc. Natl. Acad. Sci. U.S.A., 87, 682-685, 1990 and Moore et al, J. Med. Chem., 39, 669-672, 1996). Human inducible NOS (hiNOS), human endothelial constitutive NOS (hecNOS) and human neuronal constitutive NOS (hncNOS) are each cloned from RNA extracted from human tissue. The cDNA for human inducible NOS (hiNOS) is isolated from a λcDNA library made from RNA extracted from a colon sample from a patient with ulcerative colitis. The cDNA for human endothelial constitutive NOS (hecNOS) is isolated from a λcDNA library made from RNA extracted from human umbilical vein endothelial cells (HUVEC) and the cDNA for human neuronal constitutive NOS (hncNOS) is isolated from a λcDNA library made from RNA extracted from human cerebellum obtained from a cadaver. The recombinant enzymes are expressed in Sf9 insect cells using a baculovirus vector (Rodi et al, in The Biology of Nitric Oxide, Pt. 4: Enzymology. Biochemistry and Immunology; Moncada, S., Feelisch, M., Busse, R., Higgs, E., Eds.; Portland Press Ltd.: London, 1995; pp 447-450). Enzyme activity is isolated from soluble cell extracts and partially purified by DEAE-Sepharose chromatography. To measure NOS activity, 10 μL of enzyme is added to 40 μL of 50 mM Tris (pH 7.6) in the presence or absence of test compounds and the reaction initiated by the addition of 50 μL of a reaction mixture containing 50 mM Tris (pH 7.6), 2.0 mg/mL bovine serum albumin, 2.0 mM DTT, 4.0 mM CaCl2, 20 μM FAD, 100 μM tetrahydrobiopterin, 0.4 mM NADPH and 60 μM L-arginine containing 0.9 μCi of L-[2,3-^3H]-arginine. The final concentration of L-arginine in the assay is 30 μM. For hecNOS or hncNOS, calmodulin is included at a final concentration of 40-100 nM. […] After mixing the resin is allowed to settle and L-[2,3-^3H]-Citrulline formation is determined by counting aliquots of the supernatant with a liquid scintillation counter. […]

Assay [3] concerns the target T2, human endothelial constitutive NOS (hecNOS) (Homo sapiens, UniProt P29474).
T2 construct: made in house; host or cells: Sf9 insect cells (baculovirus vector)
As to the kind of experiment: Citrulline assay for nitric oxide synthase, hecNOS. In kind it is biochemical. As to conditions: recombinant enzyme, 30 μM L-arginine, calmodulin 40-100 nM.
Text: as §1

In assay [4] the target is T3, human neuronal constitutive NOS (hncNOS) (Homo sapiens, UniProt P29475).
T3 construct: made in house; host or cells: Sf9 insect cells (baculovirus vector)
The assay is described as follows: Citrulline assay for nitric oxide synthase, hncNOS. The following applies: recombinant enzyme, 30 μM L-arginine, calmodulin 40-100 nM. In kind it is biochemical.
Text: as §1

Consider `CC(=N)NC/C(C)=C\CC[C@H](N)C(=O)O` [Example 1, (2S,5Z)-2-amino-6-methyl-7-[(1-iminoethyl)amino]-5-heptenoic acid, dihydrochloride], for which, in assay [1], the ED50 is less than 0.1 mg/kg.

By IC50 is commonly meant the midpoint of a concentration-inhibition curve. Consider `CC(=N)NC/C(C)=C/CC[C@H](N)C(=O)O` [Example 2, (2S,5E)-2-amino-6-methyl-7-[(1-iminoethyl)amino]-5-heptenoic acid, dihydrochloride], for which the results for the concentration for half-maximal inhibition (IC50) in assay [2], in assay [3] and in assay [4] were 172 µM, 1490 µM and 523 µM, respectively.

With `CC(=N)NC/C=C\CC[C@H](N)C(=O)O` [Example 6, (2S,5Z)-2-amino-7-[(1-iminoethyl)amino]-5-heptenoic acid, dihydrochloride], the IC50 in assay [2] stood at 0.9 µM; in assay [3], 89 µM; in assay [4], 8 µM.

For `CC(=N)NC/C=C/CC[C@H](N)C(=O)O` [Example 8, (2S,5E)-2-amino-7-[(1-iminoethyl)amino]-5-heptenoic acid, dihydrochloride], the IC50 in assay [2] is 20 µM; in assay [3], 418 µM; in assay [4] it was 150 µM.
